Laboratory results reported in patent publication US20130324526A1, “[1,2,4] TRIAZOLO [4,3-B] PYRIDAZINE COMPOUNDS AS INHIBITORS OF THE C-MET TYROSINE KINASE” (NOVARTIS AG, priority 2011, published 2013).
pIC50: −log10 of the molar value.

Key:
[1] = target: c-MET receptor tyrosine kinase, GST-c-MET(969-1390) (Homo sapiens, UniProt P08581); assay: EPK c-MET profiling assay (LanthaScreen TR-FRET kinase assay); type: biochemical; details: 2 μM ATP, 0.3 nM enzyme, 60 minutes at room temperature; end point measurement, repeats can be about two times higher or lower; read-out: c-Met Biochem IC50
Description: The exemplified compounds of the present invention were assayed in an antibody based kinase phosphorylation assay as follows.
EPK c-MET Profiling Assay:
The EPK kinase assay for c-MET receptor tyrosine kinase was developed, using the purified recombinant GST-fusion protein, containing the cytoplasmic domain of the enzyme. GST-c-MET(969-1390) was purified by affinity chromatography.
The kinase assay is based on the LanthaScreen™ technology. LanthaScreen™ is the detection of Time-Resolved Fluorescence Resonance Energy Transfer (TR-FRET) using lanthanide chelates to measure interactions between various binding partners. In a TR-FRET kinase assay, a long-lifetime lanthanide donor species is conjugated to an antibody that specifically binds to a phosphorylated product of a kinase reaction that is labeled with a suitable acceptor fluorophore. This antibody-mediated interaction brings the lanthanide donor and the acceptor into proximity such that resonance energy transfer can take place, resulting in a detectable increase in the FRET signal.
The kinase reactions were performed in 384 well microtiter plates in a total reaction volume of 10.05 μL. The assay plates were prepared with 0.05 μL per well of test compound in the appropriate test concentration, as described under “preparation of compound dilutions”. The reactions were started by combining 5 μL of ATP solution with 5 μL of enzyme-substrate mix (consisting of kinase and substrate). The final concentrations in the kinase reactions were 25 mM Tris/HCl, 1 mM DTT, 0.025% Tween20, 10 μM sodium orthovanadate, 0.25% BSA, 0.5% DMSO, 10 mM MgCl2, 3 mM MnCl2, 2 μM ATP, 50 nM Fluorescein-PolyEAY, and 0.3 nM enzyme. The reactions were incubated for 60 minutes at room temperature and stopped by adding 5 μL of stop buffer (50 mM EDTA, 0.04% NP40, 20 mM Tris/HCl). Subsequently 5 μL of detection mix (50 mM Tris/HCl, 2 mM DTT, 0.05% Tween20, 20 μM sodium orthovanadate, 1% BSA, 1 nM Tb-PY20 antibody) were added to the stopped reactions. After 45 minutes incubation in dark at room temperature, the plates were measured in a Perkinelmer Envision fluorescence reader. The effect of compound on the enzymatic activity was in all assays obtained from the linear progress curves and normally determined from one reading (end point measurement).
These endpoint results should therefore only be seen as an indicator for the activity range, since repeated measurements can result in about two times higher or lower values.

GTL16 cells = assay: GTL16 cell viability assay (CellTiter Glo); type: cell-based; details: Homo sapiens, GTL 16, GTL16 gastric cancer cells, 24 hours, triplicates, read-out: GTL-16 Proliferation IC50
Description: GTL16 cell line is derived from a gastric cancer patient. GTL16 expresses high level of c-Met receptor tyrosine kinase due to the gene amplification.
GTL16 cells were seeded in DMEM medium with 10% FBS and 1% Pene. & Strep. at 5000 cells/well/90 μL in 96 well plate and incubated overnight for attachment at 37° C. in 5% CO2 incubator. 10-fold serials dilutions of compounds were added to the cell as 10 μL/well. The final assay volume was 100 μl/well. The assay plates were incubated at 37° C. in 5% CO2 incubator for 24 hours. […] Briefly, the plates were cooled at room temperature for 10 mins and 100 μl of CellTiter Glo reagent was added into each well. Plates were shaken for 10 mins. The chemiluminescent light unit was read in Envision from Perkin Elmer. All the tests were run at triplicates. The IC50 was calculated using Spotfire software.

human platelet PDE3 = target: T1, human platelet PDE3 (Homo sapiens, UniProt Q14432); assay: hPDE3 assay ([3H]cAMP scintillation proximity assay); type: biochemical; details: human platelet PDE3, [3H]cAMP SPA, 30 min at room temperature
T1 construct: Human platelet PDE3 (partially purified from human platelets); from tissue; host or cells: human platelets
T1 sequence (Q14432 whole entry): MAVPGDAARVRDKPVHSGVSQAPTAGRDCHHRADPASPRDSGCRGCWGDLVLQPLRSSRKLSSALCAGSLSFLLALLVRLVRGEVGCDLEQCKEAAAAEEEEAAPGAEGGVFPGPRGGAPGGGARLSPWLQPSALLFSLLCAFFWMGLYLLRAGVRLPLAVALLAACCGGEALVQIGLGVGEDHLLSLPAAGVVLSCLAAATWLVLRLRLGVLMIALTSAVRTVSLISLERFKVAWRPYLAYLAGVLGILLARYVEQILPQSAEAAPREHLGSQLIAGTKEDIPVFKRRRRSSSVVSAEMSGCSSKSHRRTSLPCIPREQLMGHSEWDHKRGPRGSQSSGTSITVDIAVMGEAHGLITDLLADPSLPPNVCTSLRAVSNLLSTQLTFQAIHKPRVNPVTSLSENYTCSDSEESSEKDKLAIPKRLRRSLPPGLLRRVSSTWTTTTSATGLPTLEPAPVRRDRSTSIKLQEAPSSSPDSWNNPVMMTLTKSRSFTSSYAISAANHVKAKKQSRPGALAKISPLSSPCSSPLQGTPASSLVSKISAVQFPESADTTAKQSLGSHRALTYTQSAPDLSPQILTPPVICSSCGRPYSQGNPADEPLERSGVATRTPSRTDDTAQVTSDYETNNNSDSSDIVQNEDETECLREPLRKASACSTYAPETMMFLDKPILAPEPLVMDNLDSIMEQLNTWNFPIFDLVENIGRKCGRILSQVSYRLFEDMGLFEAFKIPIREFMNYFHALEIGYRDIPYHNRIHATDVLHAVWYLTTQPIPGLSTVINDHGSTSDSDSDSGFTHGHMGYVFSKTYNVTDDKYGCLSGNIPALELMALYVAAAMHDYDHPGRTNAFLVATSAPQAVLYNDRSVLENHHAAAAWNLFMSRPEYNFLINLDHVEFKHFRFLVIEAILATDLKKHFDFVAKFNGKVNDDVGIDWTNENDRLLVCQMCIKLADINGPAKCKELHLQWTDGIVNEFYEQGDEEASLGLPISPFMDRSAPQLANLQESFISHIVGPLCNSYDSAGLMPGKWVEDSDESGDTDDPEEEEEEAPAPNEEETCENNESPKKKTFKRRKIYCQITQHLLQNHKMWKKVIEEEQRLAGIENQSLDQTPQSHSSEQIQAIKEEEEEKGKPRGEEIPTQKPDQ

Chain of c-MET receptor tyrosine kinase, GST-c-MET(969-1390) (P08581 969-1390): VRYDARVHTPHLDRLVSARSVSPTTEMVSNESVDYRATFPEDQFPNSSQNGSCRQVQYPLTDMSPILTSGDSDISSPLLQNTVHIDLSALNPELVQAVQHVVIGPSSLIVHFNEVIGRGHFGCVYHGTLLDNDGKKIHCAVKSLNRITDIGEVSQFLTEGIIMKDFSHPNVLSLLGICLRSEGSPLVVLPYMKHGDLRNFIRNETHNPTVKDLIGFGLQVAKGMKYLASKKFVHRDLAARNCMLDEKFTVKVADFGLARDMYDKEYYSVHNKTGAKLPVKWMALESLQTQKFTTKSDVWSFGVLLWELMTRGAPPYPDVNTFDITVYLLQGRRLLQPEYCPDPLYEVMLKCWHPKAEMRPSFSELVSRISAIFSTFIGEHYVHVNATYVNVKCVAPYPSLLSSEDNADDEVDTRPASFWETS

`C/C(=N\O)c1ccc2nnc(Sc3ccc4ncc(N5CCC(N(C)C)C5)cc4c3)n2n1` (centres unmarked) [Example 33, (E)-1-(3-((3-(3-(dimethylamino)pyrrolidin-1-yl)quinolin-6-yl)sulfanyl)-[1,2,4]triazolo[4,3-b]pyridazin-6-yl)ethanone oxime] was tested, and the pIC50 [1] was 9.05 and the pIC50 (GTL16 cells) was 9.00.
`C/C(=N\O)c1ccc2nnc(Cc3ccc4ncc(CN5CCCCC5)cc4c3)n2n1` [Example 18, (E)-1-(3-((3-(Piperidin-1-ylmethyl)quinolin-6-yl)methyl)-[1,2,4]triazolo[4,3-b]pyridazin-6-yl)ethanone oxime] was tested, and the pIC50 [1] was 6.68 and the pIC50 (GTL16 cells) was 6.50.
For `C/C(=N\O)c1ccc2nnc(Cc3c(F)cc4ncc(N5CCOCC5)cc4c3F)n2n1` [Example 11, (E)-1-[3-(5,7-Difluoro-3-morpholin-4-yl-quinolin-6-ylmethyl)-[1,2,4]triazolo[4,3-b]pyridazin-6-yl]-ethanone oxime], the pIC50 [1] was 9.00, the pIC50 (GTL16 cells) was 8.22 and the pIC50 (human platelet PDE3) was less than 4.52.
In the case of `C/C(=N\O)c1ccc2nnc(Cc3c(F)cc4ncc(-c5cnn(C)c5)cc4c3F)n2n1` [Example 22, (E)-1-(3-((5,7-Difluoro-3-(1-methyl-1H-pyrazol-4-yl)quinolin-6-yl)methyl)-[1,2,4]triazolo[4,3-b]pyridazin-6-yl)ethanone oxime], the pIC50 [1] was 9.00, the pIC50 (GTL16 cells) was 8.52 and the pIC50 (human platelet PDE3) was 4.68.
Compound `C/C(=N\O)c1ccc2nnc([C@@H](C)c3c(F)cc4ncc(-c5cnn(C)c5)cc4c3F)n2n1` [Example 21-(S), (S,E)-1-(3-(1-(5,7-difluoro-3-(1-methyl-1H-pyrazol-4-yl)quinolin-6-yl)ethyl)-[1,2,4]triazolo[4,3-b]pyridazin-6-yl)ethanone oxime] has a pIC50 [1] of 8.52, a pIC50 (GTL16 cells) of 8.15 and a pIC50 (human platelet PDE3) of 5.40.
`C/C(=N\O)c1ccc2nnc(Cc3ccc4ncc(CN5CCOCC5)cc4c3)n2n1` [Example 15, (E)-1-(3-((3-(Morpholin-4-yl-methyl)quinolin-6-yl)methyl)-[1,2,4]triazolo[4,3-b]pyridazin-6-yl)ethanone oxime] showed a pIC50 [1] of 8.15, a pIC50 (GTL16 cells) of 7.89 and a pIC50 (human platelet PDE3) of less than 4.52.
`C/C(=N\O)c1ccc2nnc(Sc3ccc4ncc(N5CCN(C)CC5)cc4c3)n2n1` [Example 28, (E)-1-(3-((3-(4-Methylpiperazin-1-yl)quinolin-6-yl)sulfanyl)-[1,2,4]triazolo[4,3-b]pyridazin-6-yl)-ethanone oxime] gave a pIC50 [1] of 8.30, a pIC50 (GTL16 cells) of 8.70 and a pIC50 (human platelet PDE3) of less than 4.52.
Compound `C/C(=N\O)c1ccc2nnc(Cc3ccc4ncc(NC5CCOCC5)cc4c3)n2n1` [Example 34, (E)-1-{3-[3-(Tetrahydro-pyran-4-ylamino)-quinolin-6-ylmethyl]-[1,2,4]triazolo[4,3-b]pyridazin-6-yl}-ethanone oxime] has a pIC50 [1] of 8.70 and a pIC50 (GTL16 cells) of 8.00.
`C/C(=N\O)c1ccc2nnc(Cc3ccc4ncc(N5C[C@@H]6C[C@H]5CN6C)cc4c3)n2n1` [Example 19, (E)-1-(3-((3-((1S,4S)-5-Methyl-2,5-diazabicyclo[2.2.1]heptan-2-yl)quinolin-6-yl)methyl)-[1,2,4]triazolo[4,3-b]pyridazin-6-yl)ethanone oxime] was tested, and the pIC50 [1] was 8.30 and the pIC50 (GTL16 cells) was 7.92.
`CO/N=C(\C)c1ccc2nnc(Cc3ccc4ncc(-c5cnn(C)c5)cc4c3)n2n1` [Example 6, (E)-1-{3-[3-(1-Methyl-1H-pyrazol-4-yl)quinolin-6-ylmethyl]-[1,2,4]triazolo[4,3-b]pyridazin-6-yl}-ethanone O-methyl-oxime] was tested, and the pIC50 [1] was 8.40 and the pIC50 (GTL16 cells) was 9.30.
In the case of `C/C(=N\O)c1ccc2nnc(Cc3ccc4ncc(N5CCC(O)CC5)cc4c3)n2n1` [Example 20, (E)-1-(3-((3-(4-Hydroxypiperidin-1-yl)quinolin-6-yl)methyl)-[1,2,4]triazolo[4,3-b]pyridazin-6-yl)ethanone oxime], the pIC50 [1] was 8.40 and the pIC50 (GTL16 cells) was 7.77.
In the case of `C/C(=N\O)c1ccc2nnc(Sc3ccc4ncc(N5CCOCC5)cc4c3)n2n1` [Example 10, (E)-1-[3-(3-Morpholin-4-yl-quinolin-6-ylsulfanyl)-[1,2,4]triazolo[4,3-b]pyridazin-6-yl]-ethanone oxime], the pIC50 [1] was 8.40 and the pIC50 (GTL16 cells) was 9.00.
`C/C(=N\O)c1ccc2nnc(Cc3ccc4ncc(CN5CCN(C)CC5)cc4c3)n2n1` [Example 16, (E)-1-(3-((3-((4-Methylpiperazin-1-yl)methyl)quinolin-6-yl)methyl)-[1,2,4]triazolo[4,3-b]pyridazin-6-yl)ethanone oxime] gave a pIC50 [1] of 7.60 and a pIC50 (GTL16 cells) of 6.31.
Compound `C/C(=N\O)c1ccc2nnc(C(C)c3ccc4ncc(-c5cnn(C)c5)cc4c3)n2n1` (centres unmarked) [Example 1, (E)-1-(3-{1-[3-(1-Methyl-1H-pyrazol-4-yl)quinolin-6-yl]-ethyl}-[1,2,4]triazolo[4,3-b]pyridazin-6-yl)-ethanone oxime] has a pIC50 [1] of 8.30 and a pIC50 (GTL16 cells) of 8.05.
`C/C(=N\N)c1ccc2nnc(C(C)c3ccc4ncc(-c5cnn(C)c5)cc4c3)n2n1` (centres unmarked) [Example 5] was tested, and the pIC50 [1] was 8.30 and the pIC50 (GTL16 cells) was 9.00.
For `C/C(=N\OCC1CC1)c1ccc2nnc(C(C)c3ccc4ncc(CN5CCOCC5)cc4c3)n2n1` (centres unmarked) [Example 9, (E)-1-{3-[1-(3-Morpholin-4-ylmethyl-quinolin-6-yl)-ethyl]-[1,2,4]triazolo[4,3-b]pyridazin-6-yl}-ethanone O-cyclopropylmethyl-oxime], the pIC50 [1] was 7.07 and the pIC50 (GTL16 cells) was 6.51.
`C/C(=N\OCC1CC1)c1ccc2nnc(C(C)c3ccc4ncc(-c5cnn(C)c5)cc4c3)n2n1` (centres unmarked) [Example 4, (E)-1-(3-{1-[3-(1-Methyl-1H-pyrazol-4-yl)quinolin-6-yl]-ethyl}-[1,2,4]triazolo[4,3-b]pyridazin-6-yl)-ethanone O-cyclopropylmethyl-oxime] gave a pIC50 [1] of 7.60.
Work on `CCO/N=C(\C)c1ccc2nnc(Cc3ccc4ncc(-c5cnn(C)c5)cc4c3)n2n1` [Example 8, (E)-1-{3-[3-(1-Methyl-1H-pyrazol-4-yl)quinolin-6-ylmethyl]-[1,2,4]triazolo[4,3-b]pyridazin-6-yl}-ethanone O-ethyl-oxime] yielded a pIC50 [1] of 8.52 and a pIC50 (GTL16 cells) of 9.52.
Compound `C/C(=N\O)c1ccc2nnc(C3(c4ccc5ncc(N6CCN(C)CC6)cc5c4)CC3)n2n1` [Example 27] has a pIC50 [1] of 7.51 and a pIC50 (GTL16 cells) of 6.62.
Compound `C/C(=N\OCC1CC1)c1ccc2nnc(Cc3ccc4ncc(-c5cnn(C)c5)cc4c3)n2n1` [Example 7, (E)-1-{3-[3-(1-Methyl-1H-pyrazol-4-yl)quinolin-6-ylmethyl]-[1,2,4]triazolo[4,3-b]pyridazin-6-yl}-ethanone O-cyclopropylmethyl-oxime] has a pIC50 [1] of 7.96 and a pIC50 (GTL16 cells) of 8.10.
With `CCO/N=C(\C)c1ccc2nnc(C(C)c3ccc4ncc(-c5cnn(C)c5)cc4c3)n2n1` (centres unmarked) [Example 2, (E)-1-(3-{1-[3-(1-Methyl-1H-pyrazol-4-yl)quinolin-6-yl]-ethyl}-[1,2,4]triazolo[4,3-b]pyridazin-6-yl)-ethanone O-ethyl-oxime] the pIC50 [1] was 8.22 and the pIC50 (GTL16 cells) was 8.70.
`C/C(=N\O)c1ccc2nnc(Cc3c(F)cc4ncc(-c5c(C)noc5C)cc4c3F)n2n1` [Example 23, (E)-1-(3-((3-(3,5-Dimethylisoxazol-4-yl)-5,7-difluoroquinolin-6-yl)methyl)-[1,2,4]triazolo[4,3-b]pyridazin-6-yl)ethanone oxime] was tested, and the pIC50 [1] was 8.10 and the pIC50 (GTL16 cells) was 7.96.
`C/C(=N\O)c1ccc2nnc(Cc3c(F)cc4ncc(CN5CCOCC5)cc4c3F)n2n1` [Example 17, (E)-1-(3-((5,7-Difluoro-3-(morpholin-4-yl-methyl)quinolin-6-yl)methyl)-[1,2,4]triazolo[4,3-b]pyridazin-6-yl)ethanone oxime] was tested, and the pIC50 [1] was 8.52 and the pIC50 (GTL16 cells) was 8.00.
